Molecules are shown by their SMILES. Where two headings read alike, the source gives them in different places.

Assay [1] addresses T1, OX1 (Homo sapiens, UniProt O43613).
T1 sequence (O43613 1-425): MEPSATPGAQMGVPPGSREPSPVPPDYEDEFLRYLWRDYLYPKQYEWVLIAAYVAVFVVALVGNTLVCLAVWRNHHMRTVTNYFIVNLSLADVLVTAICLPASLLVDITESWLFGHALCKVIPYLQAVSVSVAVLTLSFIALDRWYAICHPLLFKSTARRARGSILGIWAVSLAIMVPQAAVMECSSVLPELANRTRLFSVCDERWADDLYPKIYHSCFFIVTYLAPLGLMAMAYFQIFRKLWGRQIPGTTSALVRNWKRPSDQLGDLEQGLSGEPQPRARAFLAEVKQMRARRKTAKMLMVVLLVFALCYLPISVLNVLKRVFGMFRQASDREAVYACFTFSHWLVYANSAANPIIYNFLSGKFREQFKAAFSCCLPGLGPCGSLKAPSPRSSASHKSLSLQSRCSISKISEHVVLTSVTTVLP
The assay is described as follows: Antagonism PLAP reporter assay, HEK-293 cells expressing human OX1. Details: expressed in transfected cells; host or cells: HEK-293 cell line, expression vector pBabeCLIH. Particulars: HEK-293, 1 nM human OX-A; IC50 converted to Ki by Cheng-Prusoff equation. It counts as cell-based. The protocol: (§1) The antagonistic function of the compound of the present invention to prevent the activation of OX2 and OX1 by orexin-A (OX-A), which is a natural peptide agonist, was measured using a cell-based reporter assay. A HEK-293 cell line expressing genetically recombinant human OX2 (accession No. NM_001526.3) or a HEK-293 cell line expressing genetically recombinant human OX1 (accession No. NM_001525.2), which had pBabeCLIH as expression vector, was used. The cells were plated at a density of 10,000 cells/well onto a non-coated 96-well plate in Dulbecco's modified Eagle medium (Sigma Cat No. D6046: 10% v/v heat-inactivated fetal bovine serum was contained). The cells were cultured at 37° C. overnight, so that they could adhere to the plate. On the following day, cells were incubated with a compound of the present invention dissolved in Dulbecco's modified Eagle medium (Sigma Cat No. A8806: 0.1% w/v bovine serum albumin was contained), and added to the cell plate to reach a final concentration of 0.1% dimethyl sulfoxide.
(§2) The thus obtained mixture was incubated at room temperature for 1 hour. Thereafter, human OX-A and forskolin were dissolved in the same medium as described above, which contained fetal bovine serum albumin, and the medium was then added to the cells, resulting in a final concentration of 300 nM forskolin. Subsequently, the cells were cultured at 37° C. for approximately 18 to 24 hours. During the culture, as a result of activation of the orexin receptor and subsequent dose-dependent increase in intracellular calcium concentration, a reporter enzyme, placental alkaline phosphatase (PLAP), was expressed under the control of a CRE x4+VIP promoter in a pBabeCLcre4vPdNN vector and secreted into the culture medium supernatant. On the following day, reporter enzyme activity was detected by mixing 5 ul of the culture medium supernatant with 20 ul of detection buffer (containing 1.34 g/L sodium bicarbonate, 1.27 g/L sodium carbonate and 0.2 g/L magnesium sulfate heptahydrate in water) and 25 ul of Lumi-Phos530 reagent (Wako Pure Chemical Industries Ltd.), followed by incubating the obtained mixture light-protected at room temperature for 2 hours, before performing luminescence measurement (ARVO Reader, PerkinElmer). The Kd value of human OX-A with respect to each receptor was measured by titration from 0 to 300 nM. Then, the IC50 value of the compound of the present invention with respect to the activity of 1 nM human OX-A was converted into a Ki value (nM) using the Cheng-Prusoff equation.

For assay [2], the target named is T2, OX2 (Homo sapiens, UniProt O43614).
T2 sequence (O43614 1-444): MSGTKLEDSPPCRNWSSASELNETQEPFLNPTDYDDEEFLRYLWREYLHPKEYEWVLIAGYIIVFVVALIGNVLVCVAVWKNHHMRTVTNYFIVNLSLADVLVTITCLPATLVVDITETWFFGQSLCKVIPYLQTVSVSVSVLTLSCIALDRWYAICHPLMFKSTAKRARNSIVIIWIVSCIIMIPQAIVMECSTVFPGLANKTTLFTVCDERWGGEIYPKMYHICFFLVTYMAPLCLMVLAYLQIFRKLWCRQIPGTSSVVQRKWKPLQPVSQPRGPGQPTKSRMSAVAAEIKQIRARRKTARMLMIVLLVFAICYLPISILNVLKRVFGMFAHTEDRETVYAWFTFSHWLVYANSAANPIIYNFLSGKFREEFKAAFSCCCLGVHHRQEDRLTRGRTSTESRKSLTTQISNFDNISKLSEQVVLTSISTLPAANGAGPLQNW
Put plainly: Antagonism PLAP reporter assay, HEK-293 cells expressing human OX2. The class given is cell-based. Details: expressed in transfected cells; host or cells: HEK-293 cell line, expression vector pBabeCLIH. Particulars: HEK-293, 1 nM human OX-A; IC50 converted to Ki by Cheng-Prusoff equation. The protocol:
as §1, §2
(A reporter such as luciferase makes a cellular process visible.)

The target of assay [3] is T1, OX1. The assay is described as follows: Orexin-receptor binding ability, [125I]-OX-A, CHO cell membranes expressing OX1. The arrangement: expressed in transfected cells; host or cells: CHO cells (membrane preparation). The note with it: membranes of recombinant CHO cells, 0.2 nM [125I]-OX-A tracer; read-out: OX1 (IC50). The method, boiled down: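 Buffer was 25 mM HEPES pH 7.5, 1 mM CaCl2, 4.5 mM MgCl2, 0.5% BSA, 0.1% sodium azide, 0.05% Tween-20 and 0.2% DMSO. Bound radioactivity was counted by scintillation, and IC50 values were reported.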

In another assay the test system is mice (C57BL/6NCrlCrLj). The assay is described as follows: Sleep experiment (EEG/EMG) in mice. The class given is in vivo. Particulars: oral administration, accumulated sleep over 3 hours, difference to vehicle-administration day. Here is the method: As a method for measuring the influence of the present compound on sleep time, electroencephalogram (EEG) and electromyogram (EMG) measurements were carried out in mice (C57BL/6NCrlCrLj).
In order to measure brain waves and muscle signals, EEG and EMG electrode implantation was performed on individual mice, and the mice were then housed in a state in which they could freely move and habituate in individual recording cages for 1 week or longer. Thereafter, amplified EEG and EMG signals were digitally recorded.
Mice received either oral administration of vehicle or test compound in vehicle, after which sleep/wake behavior of mice was recorded for 3 hours.
For sleep analysis, automatic analysis software from Kissei Comtec Co., Ltd. was used to analyze EEG frequency and EMG activity signals in detail and to determine sleep and wake states. Thereafter, accumulated sleeping time over 3 hours was calculated.
The effect of the compound to increase sleep time was evaluated as the difference between sleeping time on the vehicle-administration day and the sleep time on the subsequent drug-administration day.

In assay [4] the target is T2, OX2. Put plainly: Orexin-receptor binding ability, [125I]-OX-A, CHO cell membranes expressing OX2. The arrangement: expressed in transfected cells; host or cells: CHO cells (membrane preparation). In a few lines:
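Competition binding used membranes from recombinant CHO cells (5 μg protein/assay) with 0.2 nM [125I]-OX-A tracer and varied compound concentrations. Incubation was 30 min at room temperature in 25 mM HEPES pH 7.5 with CaCl2, MgCl2, 0.5% BSA, 0.05% Tween-20 and 0.2% DMSO. Bound radioactivity was counted by scintillation after one wash, giving IC50 (nM).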

Setting [5] is: membranes of recombinant CHO cells, 0.2 nM [125I]-OX-A tracer, read-out: OX2 (IC50).

What is called Ki is a measure of affinity in units of concentration, obtained from inhibition or displacement. A lower Ki goes with a stronger hold on the target. Usually IC50 stands for the concentration that inhibits the measured activity by half. As for `COc1ccc(OC[C@@]2(c3ccccc3)C[C@H]2C(=O)Nc2ccc(C#N)cn2)cc1OC` [Example 4, (1R,2S)—N-(5-cyanopyridin-2-yl)-2-[(3,4-dimethoxyphenyl)oxymethyl]-2-phenylcyclopropanecarboxamide], the Ki amounted to 65.2 nM on OX1 [1] and 5.1 nM at OX2 [2]. The IC50 is 129 nM on OX1 [3] and 13 nM at OX2 [4] (setting [5]). Besides, the “Sleep extended time (min/3 hrs)” value in the assay on mice (C57BL/6NCrlCrLj) is 57 min/3 hrs.

For `Cc1nc(C(F)(F)F)nn1CC[C@@]1(c2ccccc2)C[C@H]1C(=O)Nc1ccc(F)cn1` [Example 121], the Ki on OX1 [1] was 406 nM; on OX2 [2], 31.4 nM. Moreover, the half-inhibitory concentration (IC50) at OX1 [3] was 166 nM; on OX2 [4] (setting [5]), 19 nM. Besides, in the assay on mice (C57BL/6NCrlCrLj), the “Sleep extended time (min/3 hrs)” value was 21.3 min/3 hrs.

Consider `CCn1nc(C)c(Cl)c1OCC1(c2ccccc2)CC1C(=O)Nc1ccc(F)cn1` (centres unmarked) [Example 74], for which the results for the Ki at OX1 [1] and on OX2 [2] were > 467 nM and 30.7 nM, respectively. Moreover, the IC50 on OX1 [3] turned out to be 359 nM; on OX2 [4] (setting [5]), 30 nM.

With `COc1ccc(S(=O)(=O)CC2(c3ccccc3)CC2C(=O)Nc2ccc(Cl)cn2)cc1OC` (centres unmarked) [Example 134, N-(5-chloropyridin-2-yl)-2-[(3,4-dimethoxyphenyl)sulfonylmethyl]-2-phenylcyclopropanecarboxamide], the Ki on OX1 [1] was > 467 nM; at OX2 [2], 268 nM. Besides, the IC50 worked out at 261 nM on OX1 [3] and 79 nM at OX2 [4].

In the case of `COc1ccc(OCC2(c3ccccc3)CC2C(=O)Nc2ccncc2C(F)(F)F)cc1OC` (centres unmarked) [Example 25, N-(3-trifluoromethylpyridin-4-yl)-2-[(3,4-dimethoxyphenyl)oxymethyl]-2-phenylcyclopropanecarboxamide], the results for the Ki at OX1 [1] and at OX2 [2] were > 816 nM and 391 nM, respectively. The IC50 at OX1 [3] was 369 nM; on OX2 [4], 27 nM.

Take `CCn1cc(OCC2(c3ccccc3)CC2C(=O)Nc2ccc(F)cn2)c(C)n1` (centres unmarked) [Example 79, N-(5-fluoropyridin-2-yl)-2-[(1-ethyl-3-methyl-1H-pyrazol-4-yl)oxymethyl]-2-phenylcyclopropanecarboxamide]: the Ki on OX1 [1] was found to be 275 nM; on OX2 [2] it was 10.5 nM. The values for the IC50 at OX1 [3] and at OX2 [4] (setting [5]) were 213 nM and 54 nM, respectively.

`Cc1nc(C(F)(F)F)nn1CC[C@@]1(c2ccccc2)C[C@H]1C(=O)Nc1ccc(Cl)cn1` [Example 122]: the Ki at OX1 [1] worked out at 140 nM; on OX2 [2] it was 10 nM. Besides, the results for the IC50 on OX1 [3] and on OX2 [4] (setting [5]) were 98 nM and 3 nM, respectively. In addition, the “Sleep extended time (min/3 hrs)” value with mice (C57BL/6NCrlCrLj) is given as 21.8 min/3 hrs.

On to `CCn1cc(OC[C@@]2(c3ccccc3)C[C@H]2C(=O)Nc2ccc(F)cn2)ccc1=O` (racemic) [Example 56], for which the Ki on OX1 [1] came to 158 nM; on OX2 [2], 9.1 nM. Also, the IC50 was found to be 160 nM on OX1 [3] and 14 nM on OX2 [4].

Regarding `COc1ccc(OCC2(c3ccccc3)CC2C(=O)Nc2ccncc2Cl)cc1OC` (centres unmarked) [Example 14, N-(3-chloropyridin-4-yl)-2-[(3,4-dimethoxyphenyl)oxymethyl]-2-phenylcyclopropanecarboxamide], the Ki at OX1 [1] is > 816 nM; at OX2 [2], 99 nM. For the same compound, the IC50 turned out to be 438 nM at OX1 [3] and 46 nM at OX2 [4] (setting [5]).

As to `COc1ccc(OCC2(c3ccccc3)CC2C(=O)Nc2cc(Cl)ccn2)cc1OC` (centres unmarked) [Example 28, N-(4-chloropyridin-2-yl)-2-[(3,4-dimethoxyphenyl)oxymethyl]-2-phenylcyclopropanecarboxamide], the Ki turned out to be 73.8 nM on OX1 [1] and 11 nM at OX2 [2]. Further, the concentration for half-maximal inhibition (IC50) on OX1 [3] was 38 nM; on OX2 [4] (setting [5]), 25 nM.

For `COc1ccc(OCC2(c3ccccc3)CC2C(=O)Nc2nc(C)cs2)cc1OC` (centres unmarked) [Example 23, N-(4-methyl-1,3-thiazol-2-yl)-2-[(3,4-dimethoxyphenyl)oxymethyl]-2-phenylcyclopropanecarboxamide], the Ki on OX1 [1] was 624 nM; at OX2 [2] it was 15.8 nM. In addition, the IC50 on OX1 [3] is 847 nM; on OX2 [4] (setting [5]), 14 nM.

The values are drawn from patent publication US20120165339A1, “CYCLOPROPANE DERIVATIVES” (EISAI R&D MANAGEMENT CO., LTD., priority 2010, published 2012).
